Test results taken from patent publication US9980943B2, “Methods of treating muscular dystrophy” (BOARD OF REGENTS OF THE NEVADA SYSTEM OF HIGHER EDUCATION, …, priority 2013, dated 2018).

How the values were obtained:
Assay type in all cases: cell-based, mouse
[1] = tested on: α7 integrin (LacZ reporter in α7+/LacZ myotubes); assay: Myotube α7 integrin FDG assay (Burkin assay in myotubes, 96-well); settings: myotubes
[2] = tested on: α7 integrin (LacZ reporter in α7βgal+/− myoblasts); assay: Myoblast α7+/LacZ integrin FDG assay (Burkin assay in myoblasts, 96-well); settings: α7+/LacZ myoblasts, 96-well
[3] = tested on: β-galactosidase in CMV-LacZ C2C12 myotubes; assay: CMV-LacZ secondary screen in C2C12 myotubes (β-Gal stabilizing assay); settings: C2C12 CMV-LacZ myotubes, fold relative to DMSO
Procedure, shortened: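 First, C2C12 myoblasts were transfected with a linearized CMV-LACZ vector and clonal lines selected by FDG β-gal assay. Then cells were exposed to compounds at 0.5, 1, 5, 10, 20 and 40 μM in 96-well format, two replicates each, and β-gal measured.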

SMILES | Burkin Assay in Myotubes, α7 integrin LacZ reporter signal relative to DMSO ([1]; 0.5 uM) | Burkin Assay in Myotubes, α7 integrin LacZ reporter signal relative to DMSO ([1]; 1 uM) | Burkin Assay in Myotubes, α7 integrin LacZ reporter signal relative to DMSO ([1]; 5 uM) | Burkin Assay in Myotubes, α7 integrin LacZ reporter signal relative to DMSO ([1]; 10 uM) | Burkin Assay in Myotubes, α7 integrin LacZ reporter signal relative to DMSO ([1]; 20 uM) | Burkin Assay in Myotubes, α7 integrin LacZ reporter signal relative to DMSO ([1]; 40 uM) | Burkin Assay in Myoblasts, signal relative to DMSO ([2]; 0.5 uM) | Burkin Assay in Myoblasts, signal relative to DMSO ([2]; 1 uM) | Burkin Assay in Myoblasts, signal relative to DMSO ([2]; 5 uM) | Burkin Assay in Myoblasts, signal relative to DMSO ([2]; 10 uM) | Burkin Assay in Myoblasts, signal relative to DMSO ([2]; 20 uM) | Burkin Assay in Myoblasts, signal relative to DMSO ([2]; 40 uM) | CMV-LACZ in Myotubes, signal relative to DMSO ([3]; 5 uM) | CMV-LACZ in Myotubes, signal relative to DMSO ([3]; 10 uM) | CMV-LACZ in Myotubes, signal relative to DMSO ([3]; 20 uM) | CMV-LACZ in Myotubes, signal relative to DMSO ([3]; 40 uM) | Burkin Assay in Myotubes (signal relative to DMSO) ([1]; 0.5 uM) | Burkin Assay in Myotubes (signal relative to DMSO) ([1]; 1 uM) | Burkin Assay in Myotubes (signal relative to DMSO) ([1]; 5 uM) | Burkin Assay in Myotubes (signal relative to DMSO) ([1]; 10 uM) | other results
Cn1c(=O)c2c(nc(Sc3ncnn3CC(=O)NC3CCCCC3)n2C)n(C)c1=O [MLS000663651-01] | 0.946 | 0.9099 | 1.106 | 1.007 | 1.017 | 0.9648 | 1.143 | 1.059 | 0.9834 | 0.9551 | 0.9504 | 1.048 | 0.9636 | 0.9788 | 0.949 | 0.861 | – | – | – | – | –
O=c1oc2c(-c3cccc(F)c3)cc(O)cc2s1 [MLS000680049-01] | 0.8875 | 1.056 | 1.047 | 1.22 | 0.8731 | 0.4379 | 0.9998 | 1.103 | 0.9693 | 0.9727 | 0.7493 | 0.6354 | 1.127 | 1.106 | 1.4405 | 0.4315 | – | – | – | – | –
Cc1ccc(-c2nc(C)sc2CC(=O)OCC(=O)Nc2c(F)cccc2F)cc1 [MLS000388722-01] | – | – | – | – | – | – | – | – | – | – | – | – | 0.9569 | 1.067 | 1.085 | 0.8668 | 0.9225 | 0.9369 | 1.032 | 1.042 | Burkin Assay in Myotubes (signal relative to DMSO) ([1]; 20 uM): 0.8001; Burkin Assay in Myotubes (signal relative to DMSO) ([1]; 40 uM): 0.9404; Burkin Assay in Myoblasts, value relative to DMSO ([2]; 0.5 uM): 0.93; Burkin Assay in Myoblasts, value relative to DMSO ([2]; 1 uM): 1.1187; Burkin Assay in Myoblasts, value relative to DMSO ([2]; 5 uM): 1.1052; Burkin Assay in Myoblasts, value relative to DMSO ([2]; 10 uM): 1.1175; Burkin Assay in Myoblasts, value relative to DMSO ([2]; 20 uM): 0.9101; Burkin Assay in Myoblasts, value relative to DMSO ([2]; 40 uM): 0.9407
OC1(c2ccccc2)C/C(=N\n2cnnc2)C=C1c1ccccc1 (stereo not drawn) [MLS000081838-01] | – | – | – | – | – | – | – | – | – | – | – | – | 0.9175 | 0.8889 | 1.018 | 0.9697 | 0.7425 | 1.018 | 0.9002 | 0.8704 | Burkin Assay in Myotubes (signal relative to DMSO) ([1]; 20 uM): 1.225; Burkin Assay in Myotubes (signal relative to DMSO) ([1]; 40 uM): 1.036; Burkin Assay in Myoblasts, value relative to DMSO ([2]; 0.5 uM): 1.0627; Burkin Assay in Myoblasts, value relative to DMSO ([2]; 1 uM): 1.047; Burkin Assay in Myoblasts, value relative to DMSO ([2]; 5 uM): 0.9611; Burkin Assay in Myoblasts, value relative to DMSO ([2]; 10 uM): 0.9253; Burkin Assay in Myoblasts, value relative to DMSO ([2]; 20 uM): 0.9822; Burkin Assay in Myoblasts, value relative to DMSO ([2]; 40 uM): 0.9234
CCCCN(CCCC)CCNC(=O)c1cn(C)c2ccc(S(=O)(=O)N(C)C3CCCCC3)cc2c1=O [MLS000913117-01] | 1.09 | 1.208 | 0.9655 | 0.6623 | 0.495 | 0.3911 | 0.9085 | 0.9155 | 0.9138 | 0.6729 | 0.1952 | 0.05713 | 0.8036 | 0.8262 | 0.5938 | 0.6538 | – | – | – | – | –
CCc1ccc(Sc2cc(C(=O)NCCN3CCOCC3)c3ccccc3n2)cc1 [MLS000584511-01] | – | – | – | – | – | – | – | – | – | – | – | – | 0.8355 | 0.8735 | 0.871 | 0.7478 | 1.0682 | 1.051 | 1.2189 | 1.163 | Burkin Assay in Myotubes (signal relative to DMSO) ([1]; 20 uM): 1.004; Burkin Assay in Myotubes (signal relative to DMSO) ([1]; 40 uM): 1.041; Burkin Assay in Myoblasts, value relative to DMSO ([2]; 0.5 uM): 0.5425; Burkin Assay in Myoblasts, value relative to DMSO ([2]; 1 uM): 0.8885; Burkin Assay in Myoblasts, value relative to DMSO ([2]; 5 uM): 1.033; Burkin Assay in Myoblasts, value relative to DMSO ([2]; 10 uM): 1.087; Burkin Assay in Myoblasts, value relative to DMSO ([2]; 20 uM): 1.05; Burkin Assay in Myoblasts, value relative to DMSO ([2]; 40 uM): 1.072
O=C1CCc2cc(S(=O)(=O)Nc3ccc(C(F)(F)F)cc3)cc3c2N1CC3 [MLS001237320-01] | 0.9879 | 1.055 | 1.035 | 0.6554 | 0.9912 | 0.9787 | 0.9733 | 0.9848 | 0.9145 | 0.8495 | 0.9287 | 0.8187 | 0.9582 | 0.7569 | 0.9895 | 1.082 | – | – | – | – | –
NS(=O)(=O)c1ccc(NC(=O)c2ccc(CNS(=O)(=O)c3cc(C(F)(F)F)ccc3Cl)cc2)cc1 [MLS000393110-01] | 1.139 | 0.9276 | 1.022 | 0.9816 | 0.6726 | 0.8173 | 0.9045 | 0.9273 | 1.074 | 1.088 | 1.012 | 0.71 | 1.103 | 0.9673 | 1.0745 | 0.8895 | – | – | – | – | –
Cc1ccc(N(CCC(=O)O)S(=O)(=O)c2cccc(C(F)(F)F)c2)cc1 [MLS000775793-01] | – | – | – | – | – | – | – | – | – | – | – | – | 0.855 | 1.012 | 0.9323 | 1.021 | 0.9391 | 0.8833 | 0.8722 | 0.6224 | Burkin Assay in Myotubes (signal relative to DMSO) ([1]; 20 uM): 0.9965; Burkin Assay in Myotubes (signal relative to DMSO) ([1]; 40 uM): 0.9508; Burkin Assay in Myoblasts, value relative to DMSO ([2]; 0.5 uM): 1.103; Burkin Assay in Myoblasts, value relative to DMSO ([2]; 1 uM): 1.076; Burkin Assay in Myoblasts, value relative to DMSO ([2]; 5 uM): 1.109; Burkin Assay in Myoblasts, value relative to DMSO ([2]; 10 uM): 1.076; Burkin Assay in Myoblasts, value relative to DMSO ([2]; 20 uM): 0.9292; Burkin Assay in Myoblasts, value relative to DMSO ([2]; 40 uM): 0.9895
